# Measured values: patent US20260193219A1, “TRIAZINE DERIVATIVES FOR TREATING DISEASES RELATING TO NEUROTROPHINS” (AlzeCure Pharma AB, priority 2020, published 2026)
# Tests used:
# [1] = biological target: T1, TrkB (Homo sapiens, UniProt Q16620); test: In vitro Trk receptor modulation assay (Enzyme Fragment Complementation), U2OS cells over-expressing TrkB; format: cell-based; settings: compound pre-mixed with ligand (NGF), final 10 ng/mL, 3 hours, modulator mode
# T1 construct: expressed in transfected cells; host or cells: U2OS
# T1 sequence (Q16620 32-822): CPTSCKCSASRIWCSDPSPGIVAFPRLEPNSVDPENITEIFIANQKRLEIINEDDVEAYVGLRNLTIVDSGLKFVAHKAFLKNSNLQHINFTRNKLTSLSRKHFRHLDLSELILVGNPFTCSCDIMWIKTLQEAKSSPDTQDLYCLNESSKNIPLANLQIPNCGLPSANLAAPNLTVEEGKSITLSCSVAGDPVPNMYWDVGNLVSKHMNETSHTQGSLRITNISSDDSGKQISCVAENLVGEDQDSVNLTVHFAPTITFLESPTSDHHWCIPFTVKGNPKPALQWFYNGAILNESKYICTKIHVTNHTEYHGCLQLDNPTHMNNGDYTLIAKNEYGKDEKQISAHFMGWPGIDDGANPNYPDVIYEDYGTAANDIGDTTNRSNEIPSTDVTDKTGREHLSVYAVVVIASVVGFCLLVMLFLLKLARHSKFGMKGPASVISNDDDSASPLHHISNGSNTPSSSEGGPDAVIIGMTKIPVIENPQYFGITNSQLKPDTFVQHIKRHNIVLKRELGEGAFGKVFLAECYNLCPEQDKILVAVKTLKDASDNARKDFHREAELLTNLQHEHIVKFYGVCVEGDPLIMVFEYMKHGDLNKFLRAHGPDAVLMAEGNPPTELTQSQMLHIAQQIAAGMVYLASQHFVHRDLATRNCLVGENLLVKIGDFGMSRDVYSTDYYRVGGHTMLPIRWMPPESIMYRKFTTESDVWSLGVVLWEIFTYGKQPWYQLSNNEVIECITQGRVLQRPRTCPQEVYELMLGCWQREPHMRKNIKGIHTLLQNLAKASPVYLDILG
# Excerpt: (§1) A high throughput cell-based screen was used to identify positive modulators of TrkA and TrkB. The screen involves the use of cell-based assay overexpressing TrkA, or TrkB. The purpose of the assay is to identify compounds that modulate neurotrophin signalling (Forsell et al 2012). The assay can be used in inhibitor mode using a high concentration of ligand, in modulator mode using an intermediate concentration and in agonist mode using a low concentration of ligand.
# (§2) The assay uses Enzyme Fragment Complementation (EFC) technique, which is a proximity-based assay. Briefly, cells used in this assay over-express two fusion proteins, i.e. the receptor, which can be one of TrkA or TrkB fused to a small peptide of beta-galactosidase and an adaptor protein, i.e. SHC1 (or any other Trk-adaptor protein) fused to the major part of beta-galactosidase. […] The proximity between the small activating peptide on the receptor and the major part of beta-galactosidase on the adaptor protein leads to an active beta-galactosidase enzyme. The activation of the receptor is quantified by measuring the amount of active beta-galactosidase by its conversion of a non-luminescent substrate into a luminescent product.
# (§3) U2OS-cells, over-expressing TrkA or TrkB, were plated in 96- or 384-well plates and incubated overnight. On the following day, test compound was pre-mixed with ligand (NGF) and the ligand-compound mixture is then added to the cells to yield a final ligand concentration of 10 ng/mL. After 3 hours of incubation at room temperature, the incubation is stopped by the addition of a beta-galactosidase substrate mixture containing detergents. The substrate mixture is incubated for 60 minutes at ambient temperature. The luminescence is thereafter read by the use of a plate reader.
# [2] = biological target: T2, TrkA (Homo sapiens, UniProt P04629); test: In vitro Trk receptor modulation assay (Enzyme Fragment Complementation), U2OS cells over-expressing TrkA; format: cell-based; settings: compound pre-mixed with ligand (NGF), final 10 ng/mL, 3 hours, modulator mode
# T2 construct: expressed in transfected cells; host or cells: U2OS
# T2 sequence (P04629 33-796): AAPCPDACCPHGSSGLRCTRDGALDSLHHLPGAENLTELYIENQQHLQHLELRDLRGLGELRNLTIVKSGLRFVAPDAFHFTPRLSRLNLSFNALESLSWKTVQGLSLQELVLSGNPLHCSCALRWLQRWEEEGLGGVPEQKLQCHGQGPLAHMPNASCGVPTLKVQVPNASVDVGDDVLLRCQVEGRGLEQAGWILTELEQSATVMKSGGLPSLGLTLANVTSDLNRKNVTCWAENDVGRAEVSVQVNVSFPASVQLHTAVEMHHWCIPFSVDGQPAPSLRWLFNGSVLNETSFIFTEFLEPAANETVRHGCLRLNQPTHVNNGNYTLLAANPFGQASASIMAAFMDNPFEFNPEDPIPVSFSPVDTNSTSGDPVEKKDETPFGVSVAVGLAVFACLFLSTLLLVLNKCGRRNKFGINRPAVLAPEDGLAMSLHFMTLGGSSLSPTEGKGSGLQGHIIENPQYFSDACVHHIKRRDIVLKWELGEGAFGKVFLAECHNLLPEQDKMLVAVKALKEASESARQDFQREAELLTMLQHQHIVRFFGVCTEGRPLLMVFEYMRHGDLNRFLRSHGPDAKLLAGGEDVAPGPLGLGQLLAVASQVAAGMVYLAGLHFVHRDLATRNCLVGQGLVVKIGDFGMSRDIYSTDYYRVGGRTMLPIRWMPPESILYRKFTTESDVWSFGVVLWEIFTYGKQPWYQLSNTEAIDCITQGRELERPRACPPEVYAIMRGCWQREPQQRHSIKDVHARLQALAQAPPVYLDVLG
# Excerpt: as §1, §2, §3
# [3] = tested on: C57/Bl6 mice; test: Passive avoidance task in scopolamine-treated mice; format: in vivo; settings: mice treated with scopolamine 0.3 mg/kg s.c.; compound single s.c. administration 60 min prior to training, different doses
# Experimental: The passive avoidance (PA) is an aversive learning task based on classical (Pavlovian) fear conditioning that allows for analysis of both facilitation and impairment of memory function by adjusting the unconditioned stimulus, i.e. the electrical foot shock. Commonly a cognitive-impairing agent is administered to the animals to mimic the neurochemical disturbances present in various cognitive disorders e.g. cholinergic (scopolamine) and glutamatergic (MK-801) deficits.
# Prior to testing, the animals are brought to the experimental room where they were allowed to habituate for 60 min. The test is conducted using a modified shuttle box with two communicating compartments of equal size with a small sliding door built into the separating wall and a stainless-steel bar floor. One of the compartments is not illuminated and thus black whereas the other compartment (the light one) is illuminated by an electric bulb, installed on the top of a plexiglass cover. The PA training is conducted in a single session. […] Latency to cross over into the dark compartment (training latency) is recorded. […] The latency to cross over into the dark compartment with all four feet is measured (retention latency) as well as time in bright compartment and a number of other relevant parameters (e.g. number of visits in the dark compartment). […]
# [4] = Human liver microsomal stability; format: in vitro ADME; settings: human liver microsomes 0.5 mg/mL, 3 μM compound, NADPH, 37° C.
# Experimental: A 10 mM stock solution (in DMSO) was prepared for each compound. From the intermediate stock solution of 2 mM, a working solution of 0.5 mM was prepared by diluting the compound in Acetonitrile:water (50:50). The compound (1.8 μL of working solution) was spiked in 0.1 M potassium phosphate buffer (260.7 μL), pH 7.4 at a concentration of 3 μM (0.1% DMSO). Following this, human liver microsomes (pooled, Invitrogen, #HMMCPL) (7.5 μL; final protein conc. 0.5 mg/mL) were added. The aforementioned sample was incubated at 37° C. for 5 min. Subsequently, 30 μL of 10 mM NADPH prepared in 0.1 M potassium phosphate buffer was added (as a co-factor) to initiate the reaction. The samples were then incubated at 37° C. for 0, 20, 40, 60 and 120 min.
# At each time point (0, 20, 40, 60 and 120 min), 40 μL of the samples were withdrawn and reactions were stopped using 360 μL chilled acetonitrile or methanol containing suitable internal standard (Carbamazepine). The samples were centrifuged and the supernatants was analyzed in duplicate by LC-MS/MS. The percent compound remaining at each time point was calculated with respect to that of the 0 min sample. Control samples were run without NADPH for initial and final time point and blank samples was prepared using DMSO (without the test compound).
# For comparison, the experiment was also performed with known Trk receptor signalling modulator 1-methyl-3-[3-methyl-4-(4-trifluoromethanesulfonylphenoxy)phenyl]-1,3,5-triazinane-2,4,6-trione) (ponazuril). Ponazuril is metabolized very slowly in vivo and this prolonged exposure creates an increased risk of side effects if the compound is administered systemically. This causes significant challenges to the development of the compound as a systemic drug.
# [5] = tested on: C57/B16 mice; test: Forced Swim Test; format: in vivo; settings: 1 mg/kg single s.c. administration 30 min prior to FST on day 2
# Experimental: The Forced Swim Test (FST) is a commonly used test in rodents to assess depression-like behaviour (Porsolt et al., Nature, 1977, 266, 730-732). The model measures a learned helplessness response and has shown to have predictive validity for clinical antidepressants, e.g. SSRIs.
# The mouse version consists of a vertical glass cylinder (25 cm high, 13 cm in diameter) filled with tap water up to 16 cm in height (25±0.5° C.). This means that the animal cannot escape (climb out) nor stand on its tail or hindlimbs. After a certain time the animal realize that it cannot get out and will stop struggling to get out, and instead become immobile and float.
# The animal is placed inside the cylinder and allowed two swimming sessions: a 10 min pre-test (on day 1), 24 h later (day 2) a second 6 min test is conducted. The total duration of immobility and latency to the first immobility are recorded during the second 6 min test. Immobility is defined as floating passively in an upright position in the water, with only small movements necessary to keep the head above the water surface. Animals are then gently removed from water and dried.
# Vehicle (20% DMSO in 0.1M PBS) or 1 mg/kg of the compound of Example 1 were administered to C57/B16 mice as a single s.c. administration 30 min prior to FST on day 2. As comparator, fluoxetine is commonly used a dose of 20 mg/kg. […]
EC50 [1],EC50 [2],% of parent compound metabolized after 120 min [4],Compound,"cognitive function, retention latency within the bright area (passive avoidance) [3]",time spent immobile (Forced Swim Test) compared to vehicle control [5]
310 nM,330 nM,82.0%,"COCc1cc(-n2c(=O)[nH]c(=O)n(-c3cccc(C)c3)c2=O)ccc1Oc1ccccc1 [Example 3, 1-[3-(methoxymethyl)-4-phenoxyphenyl]-3-(3-methylphenyl)-1,3,5-triazinane-2,4,6-trione]",improves cognitive function,
150 nM,120 nM,26.8%,"Cc1cccc(-n2c(=O)[nH]c(=O)n(-c3ccc(Oc4ccccc4)c(C)c3)c2=O)c1 [Example 1, 1-(3-methyl-4-phenoxyphenyl)-3-(3-methylphenyl)-1,3,5-triazinane-2,4,6-trione]",improves cognitive function,decreased time spent immobile
260 nM,430 nM,13.3%,"COCc1cccc(-n2c(=O)[nH]c(=O)n(-c3ccc(Oc4ccccc4)c(C)c3)c2=O)c1 [Example 2, 1-[3-(methoxymethyl)phenyl]-3-(3-methyl-4-phenoxyphenyl)-1,3,5-triazinane-2,4,6-trione]",,
120 nM,300 nM,15.4%,"Cc1cccc(-n2c(=O)[nH]c(=O)n(-c3ccc(Oc4ccccc4)c(CN4CCNC4=O)c3)c2=O)c1 [Example 5, 1-(3-methylphenyl)-3-{3-[(2-oxoimidazolidin-1-yl)methyl]-4-phenoxyphenyl}-1,3,5-triazinane-2,4,6-trione]",,
